In patent US6110491A, “Compound-loaded liposomes and methods for their preparation” (Hermes Biosciences, Inc., priority 1997, dated 2000):
In brackets after ≈: the same amount, converted by molar mass. Entries after “also recorded” stand apart in the source; their conditions may differ.

Legend:
[1] = Doxorubicin loading into liposomes with entrapped sodium salts of sulfuric, phosphoric, polyvinylsulfuric or polyphosphoric acid, without or with nigericin (Examples 4, 5); format: physicochemical
Protocol: Liposomes were prepared from egg phosphatidylcholine using the procedure identical to Example 1 but instead of polyacrylic acid, the inner buffers contained one of the following salts: sodium sulfate, sodium phosphate, sodium polyvinylsulfate (Fluka, Ronkonkoma, N.Y.; average chain length n=13), or sodium polyphosphate (Sigma Chemical Co.; average chain length n=13-18), at a concentration of 100 mill-equivalents of sodium/L. The liposomes were incubated with doxorubicin (300 nmol/μmol of phospholipid) overnight, free drug was removed from the liposomes, and the liposomes were assayed as described in Example 1. Drug incorporation into the liposomes was as follows (in nmol/μmol of phospholipid): sodium sulfate, 82.1±0.95; sodium phosphate, 76.8±2.3; sodium polyvinylsulfate, 109.8±0.25; sodium polyphosphate, 85.2±2.2; "blank" liposomes, containing 100 mM sodium chloride, 1.03±0.06.
Liposomes were prepared and loading with doxorubicin as in Example 4, except that prior to drug loading, nigericin was added to the liposomes at a concentration of 5 μmol/L. The following drug incorporation (nmol/μmol of phospholipid) was obtained in the liposomes containing: sodium sulfate, 96.5±1.9; sodium phosphate, 271.9±3.8; sodium polyvinylsulfate, 133.7±1.9; sodium polyphosphate, 169.7±2.7.

[2] = Effect of membrane-active ion carriers on loading of doxorubicin into liposomes with entrapped potassium polyacrylate (Example 6, FIG. 1); format: physicochemical; conditions: valinomycin, CCCP or nigericin vs. none (FIG. 1)
From the text: The liposomes prepared according to the present invention can be clearly distinguished from similar liposomes prepared by pH gradient, or ammonium ion gradient methods, by the liposomal response to membrane-active ion carriers which destroy transmembrane electrochemical gradients. For example, CCCP is a membrane proton carrier which destroys transmembrane pH gradients and leads to quick release of a liposomal-entrapped compound.
In contrast, liposomes prepared according to this invention, load doxorubicin in the presence of CCCP or nigericin with nearly the same efficiency as in the absence of such membrane-active ion carriers. This is shown in FIG. 1, where the loading of doxorubicin into liposomes in the presence of valinomycin, CCCP or nigericin was determined as a function of time. The liposomes were prepared as described in Example 1 to have entrapped potassium polyacrylate.

[3] = test system: Human nasopharyngeal epidermoid carcinoma (KB) cells; assay: Cytotoxicity, growth inhibition by tetrazolium assay (96 hour incubation); format: cell-based; conditions: read-out: 50% growth inhibitory concentration (IC50)
Protocol: Human nasopharyngeal epidermoid carcinoma (KB) cells were from American Type Culture Collection (ATCC, Rockville, M.D.). The cells were grown in RPMI 1640 medium supplemented with 10% heat inactivated fetal calf serum, harvested by trypsinization, and plated in 96-well tissue culture plates at 2×10^4 cells/well. After a 24 hour acclimation period, a solution of free doxorubicin or the doxorubicin liposomes described in Example 1 were added to the cells to achieve final doxorubicin concentrations of 0.125-8 μg/ml. "Empty" liposomes were added to control cells at matching concentrations of the lipid. After a 96 hour incubation period, viability of the cells was measured by tetrazolium assay (Carmichael, et al., 1987). 50% growth inhibitory concentrations (IC50) of the studied preparation were as follows: […]

With `COc1cccc2c1C(=O)c1c(O)c3c(c(O)c1C2=O)C[C@@](O)(C(=O)CO)C[C@@H]3O[C@H]1C[C@H](N)[C@H](O)[C@H](C)O1` [doxorubicin] the “Drug incorporation into the liposomes” value ([1]; "blank" liposomes containing 100 mM sodium chloride, doxorubicin 300 nmol/μmol) was 1.03±0.06 nmol/μmol of phospholipid, the “Drug incorporation into the liposomes” value ([1]; entrapped sodium phosphate, doxorubicin 300 nmol/μmol, overnight, no nigericin) was 76.8±2.3 nmol/μmol of phospholipid and the “Drug incorporation into the liposomes” value ([1]; entrapped sodium phosphate, nigericin 5 μmol/L) was 271.9±3.8 nmol/μmol of phospholipid. The “Drug incorporation into the liposomes” value ([1]; entrapped sodium polyphosphate, doxorubicin 300 nmol/μmol, overnight, no nigericin) was 85.2±2.2 nmol/μmol of phospholipid, the “Drug incorporation into the liposomes” value ([1]; entrapped sodium polyphosphate, nigericin 5 μmol/L) was 169.7±2.7 nmol/μmol of phospholipid and the “Drug incorporation into the liposomes” value ([1]; entrapped sodium polyvinylsulfate, doxorubicin 300 nmol/μmol, overnight, no nigericin) was 109.8±0.25 nmol/μmol of phospholipid. The “Drug incorporation into the liposomes” value ([1]; entrapped sodium polyvinylsulfate, nigericin 5 μmol/L) was 133.7±1.9 nmol/μmol of phospholipid, the “Drug incorporation into the liposomes” value ([1]; entrapped sodium sulfate, doxorubicin 300 nmol/μmol, overnight, no nigericin) was 82.1±0.95 nmol/μmol of phospholipid and the “Drug incorporation into the liposomes” value ([1]; entrapped sodium sulfate, nigericin 5 μmol/L) was 96.5±1.9 nmol/μmol of phospholipid. For the same compound, the “Effect of nigericin on drug loading” value ([1]; permeabilization of liposome membrane by nigericin 5 μmol/L) was “did not decrease drug loading”, the “Doxorubicin loading in presence of membrane-active ion carriers” value [2] was “substantially equal efficiency; also recorded: substantially unaffected” and the IC50 [3] was 0.35 µg/mL (≈ 0.644 µM).
